Patent publication US7645881B2, “Methods for treating hepatitis C” (PTC Therapeutics, Inc., priority 2004, dated 2010)

How the values were obtained:
HCV replicon = experiment: microbe, parasite or virus in culture; format: cell-based; settings: Hepatitis C virus, 48 h, read-out: Replicon IC50s μM
[1] = tested on: wild-type poliovirus (WT-PV); format: cell-based; settings: HeLa cells, MOI 0.1, compound for one day, decrease of cytopathic effect
[2] = tested on: cap-dependent translation; experiment: Western blot of Fluc protein in pLuc cells (cap-dependent translation); format: cell-based, human; settings: 20 hours, data not shown

| SMILES | IC50 (HCV replicon) [µM] | WTPV CPE (1.2 μM) [1] | WTPV CPE (11.1 μM) [1] | WTPV CPE (100 μM) [1] | melting point [°C] | cap-dependent protein production (luciferase reporter protein level, Western blot) [2] |
| --- | --- | --- | --- | --- | --- | --- |
| CN1CCN(C(=O)c2sc3nc4c(c(C(F)(F)F)c3c2N)CCCCC4)CC1 [Compound 5] | > 2 | 0 | 1 (A “1” in the WT-PV CPE columns indicates that the CPE (cytopathic effect) is decreased by 20-50%.) | 2 (A “2” in the WT-PV CPE columns indicates that the CPE is decreased by 50-75%.) |  |  |
| Nc1c(C(=O)Nc2ccc(C(F)(F)F)cc2)sc2nc3c(cc12)CCCCC3 [Compound 29] | > 2 | 0 | 1 (A “1” in the WT-PV CPE columns indicates that the CPE (cytopathic effect) is decreased by 20-50%.) | 2 (A “2” in the WT-PV CPE columns indicates that the CPE is decreased by 50-75%.) |  |  |
| CCc1c(C)nc2sc(N)c(C#N)c2c1C [Compound 35, 2-amino-5-ethyl-4,6-dimethylthieno[2,3-b]pyridine-3-carbonitrile] | > 2 | 0 | 1 (A “1” in the WT-PV CPE columns indicates that the CPE (cytopathic effect) is decreased by 20-50%.) | 2 (A “2” in the WT-PV CPE columns indicates that the CPE is decreased by 50-75%.) | 223 to 225 |  |
| CCc1c(C)nc2sc(NC(=O)C(C)(C)C)c(C#N)c2c1C [Compound 50] | > 2 | 0 | 1 (A “1” in the WT-PV CPE columns indicates that the CPE (cytopathic effect) is decreased by 20-50%.) | 3 (A “3” in the WT-PV CPE columns indicates that the CPE is decreased by 75-100%.) | 164 to 166 |  |
| COc1ccc(C[C@H](N)C(=O)N[C@H]2[C@@H](O)[C@H](n3cnc4c(N(C)C)ncnc43)O[C@@H]2CO)cc1 [puromycin] |  |  |  |  |  | inhibited |
